Laboratory results taken from ChEMBL document CHEMBL4507281, “Data for DCP probe BI-4394” (2021).

Columns and labels:
[1] = target: Serine/threonine-protein kinase SBK1 (Homo sapiens) (UniProt Q52WX2); conditions: Compound concentration 100.0 nM
[2] = target: Tyrosine-protein kinase ABL2 (Homo sapiens) (UniProt P42684); conditions: Compound concentration 100.0 nM
[3] = target: Interferon-induced, double-stranded RNA-activated protein kinase (Homo sapiens) (UniProt P19525); conditions: Compound concentration 100.0 nM
[4] = target: Mitogen-activated protein kinase 10 (Homo sapiens) (UniProt P53779); conditions: Compound concentration 100.0 nM
[5] = target: Tyrosine-protein kinase receptor TYRO3 (Homo sapiens) (UniProt Q06418); conditions: Compound concentration 100.0 nM
[6] = tested on: Receptor-type tyrosine-protein kinase FLT3 (Homo sapiens), P36888 [N841I]; conditions: Compound concentration 100.0 nM
[7] = target: Cyclin-dependent kinase 3 (Homo sapiens) (UniProt Q00526); conditions: Compound concentration 100.0 nM
[8] = target: Muscarinic acetylcholine receptor M4 (Homo sapiens) (UniProt P08173); conditions: Compound concentration 10.0 uM
[9] = target: Phosphatidylinositol 4-phosphate 5-kinase type-1 alpha (Homo sapiens) (UniProt Q99755); conditions: Compound concentration 100.0 nM
[10] = target: Tyrosine-protein kinase JAK2 (Homo sapiens) (UniProt O60674); conditions: Compound concentration 100.0 nM
[11] = target: Serine/threonine-protein kinase WNK1 (Homo sapiens) (UniProt Q9H4A3); conditions: Compound concentration 100.0 nM
[12] = tested on: Tyrosine-protein kinase ABL1 (Homo sapiens), P00519 [T315I]; conditions: Compound concentration 100.0 nM
[13] = tested on: Hepatocyte growth factor receptor (Homo sapiens), P08581 [Y1235D]; conditions: Compound concentration 100.0 nM
[14] = target: SNF-related serine/threonine-protein kinase (Homo sapiens) (UniProt Q9NRH2); conditions: Compound concentration 100.0 nM
[15] = tested on: Receptor-type tyrosine-protein kinase FLT3 (Homo sapiens), P36888 [D835Y]; conditions: Compound concentration 100.0 nM
[16] = target: Fibroblast growth factor receptor 2 (Homo sapiens) (UniProt P21802); conditions: Compound concentration 100.0 nM
[17] = target: Calcium/calmodulin-dependent protein kinase type II subunit delta (Homo sapiens) (UniProt Q13557); conditions: Compound concentration 100.0 nM
[18] = tested on: Phosphatidylinositol 4,5-bisphosphate 3-kinase catalytic subunit alpha isoform (Homo sapiens), P42336 [I800L]; conditions: Compound concentration 100.0 nM
[19] = target: Mitogen-activated protein kinase 6 (Homo sapiens) (UniProt Q16659); conditions: Compound concentration 100.0 nM
[20] = target: Mitogen-activated protein kinase kinase kinase 13 (Homo sapiens) (UniProt O43283); conditions: Compound concentration 100.0 nM
[21] = target: MAP/microtubule affinity-regulating kinase 3 (Homo sapiens) (UniProt P27448); conditions: Compound concentration 100.0 nM
[22] = target: Calcium/calmodulin-dependent protein kinase type 1B (Homo sapiens) (UniProt Q6P2M8); conditions: Compound concentration 100.0 nM
[23] = target: Serine/threonine-protein kinase 38-like (Homo sapiens) (UniProt Q9Y2H1); conditions: Compound concentration 100.0 nM
[24] = target: Casein kinase I isoform gamma-2 (Homo sapiens) (UniProt P78368); conditions: Compound concentration 100.0 nM
[25] = target: Phosphatidylinositol 4-kinase beta (Homo sapiens) (UniProt Q9UBF8); conditions: Compound concentration 100.0 nM
[26] = tested on: Tyrosine-protein kinase ABL1 (Homo sapiens), P00519 [H396P]; conditions: Compound concentration 100.0 nM
[27] = target: Mitogen-activated protein kinase 12 (Homo sapiens) (UniProt P53778); conditions: Compound concentration 100.0 nM
[28] = target: Serine/threonine-protein kinase MRCK beta (Homo sapiens) (UniProt Q9Y5S2); conditions: Compound concentration 100.0 nM
[29] = target: Serine/threonine-protein kinase LATS1 (Homo sapiens) (UniProt O95835); conditions: Compound concentration 100.0 nM
[30] = target: Serine/threonine-protein kinase SIK3 (Homo sapiens) (UniProt Q9Y2K2); conditions: Compound concentration 100.0 nM
[31] = target: Ephrin type-A receptor 3 (Homo sapiens) (UniProt P29320); conditions: Compound concentration 100.0 nM
[32] = target: Mitogen-activated protein kinase 14 (Homo sapiens) (UniProt Q16539); conditions: Compound concentration 100.0 nM
[33] = target: Dual specificity mitogen-activated protein kinase kinase 4 (Homo sapiens) (UniProt P45985); conditions: Compound concentration 100.0 nM
[34] = target: Mast/stem cell growth factor receptor Kit (Homo sapiens) (UniProt P10721); conditions: Compound concentration 100.0 nM
[35] = target: Serine/threonine-protein kinase B-raf (Homo sapiens) (UniProt P15056); conditions: Compound concentration 100.0 nM
[36] = target: Serine/threonine-protein kinase PAK 2 (Homo sapiens) (UniProt Q13177); conditions: Compound concentration 100.0 nM

Chain of Fibroblast growth factor receptor 2 (Homo sapiens) (P21802 22-821 limits assumed): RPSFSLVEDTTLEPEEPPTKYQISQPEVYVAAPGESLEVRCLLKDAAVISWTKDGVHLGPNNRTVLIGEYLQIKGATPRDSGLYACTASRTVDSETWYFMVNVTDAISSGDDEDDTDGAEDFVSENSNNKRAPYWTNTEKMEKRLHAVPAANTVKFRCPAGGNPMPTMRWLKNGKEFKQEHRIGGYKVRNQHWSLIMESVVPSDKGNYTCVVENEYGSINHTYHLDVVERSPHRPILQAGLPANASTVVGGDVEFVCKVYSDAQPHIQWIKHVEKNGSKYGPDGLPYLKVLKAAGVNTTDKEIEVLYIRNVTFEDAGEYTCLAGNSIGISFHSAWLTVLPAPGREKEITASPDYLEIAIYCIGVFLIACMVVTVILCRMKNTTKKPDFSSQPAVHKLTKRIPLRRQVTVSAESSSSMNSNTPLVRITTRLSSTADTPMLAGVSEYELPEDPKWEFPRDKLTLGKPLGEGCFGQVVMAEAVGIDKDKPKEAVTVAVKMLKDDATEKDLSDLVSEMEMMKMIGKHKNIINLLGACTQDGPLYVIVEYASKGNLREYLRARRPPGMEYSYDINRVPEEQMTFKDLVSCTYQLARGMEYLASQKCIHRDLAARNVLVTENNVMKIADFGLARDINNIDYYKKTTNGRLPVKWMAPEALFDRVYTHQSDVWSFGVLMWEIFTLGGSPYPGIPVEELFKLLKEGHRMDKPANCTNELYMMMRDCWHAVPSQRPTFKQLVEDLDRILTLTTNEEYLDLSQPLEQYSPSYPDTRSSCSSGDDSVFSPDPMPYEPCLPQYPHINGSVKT
Chain of Tyrosine-protein kinase ABL2 (Homo sapiens) (P42684 whole entry): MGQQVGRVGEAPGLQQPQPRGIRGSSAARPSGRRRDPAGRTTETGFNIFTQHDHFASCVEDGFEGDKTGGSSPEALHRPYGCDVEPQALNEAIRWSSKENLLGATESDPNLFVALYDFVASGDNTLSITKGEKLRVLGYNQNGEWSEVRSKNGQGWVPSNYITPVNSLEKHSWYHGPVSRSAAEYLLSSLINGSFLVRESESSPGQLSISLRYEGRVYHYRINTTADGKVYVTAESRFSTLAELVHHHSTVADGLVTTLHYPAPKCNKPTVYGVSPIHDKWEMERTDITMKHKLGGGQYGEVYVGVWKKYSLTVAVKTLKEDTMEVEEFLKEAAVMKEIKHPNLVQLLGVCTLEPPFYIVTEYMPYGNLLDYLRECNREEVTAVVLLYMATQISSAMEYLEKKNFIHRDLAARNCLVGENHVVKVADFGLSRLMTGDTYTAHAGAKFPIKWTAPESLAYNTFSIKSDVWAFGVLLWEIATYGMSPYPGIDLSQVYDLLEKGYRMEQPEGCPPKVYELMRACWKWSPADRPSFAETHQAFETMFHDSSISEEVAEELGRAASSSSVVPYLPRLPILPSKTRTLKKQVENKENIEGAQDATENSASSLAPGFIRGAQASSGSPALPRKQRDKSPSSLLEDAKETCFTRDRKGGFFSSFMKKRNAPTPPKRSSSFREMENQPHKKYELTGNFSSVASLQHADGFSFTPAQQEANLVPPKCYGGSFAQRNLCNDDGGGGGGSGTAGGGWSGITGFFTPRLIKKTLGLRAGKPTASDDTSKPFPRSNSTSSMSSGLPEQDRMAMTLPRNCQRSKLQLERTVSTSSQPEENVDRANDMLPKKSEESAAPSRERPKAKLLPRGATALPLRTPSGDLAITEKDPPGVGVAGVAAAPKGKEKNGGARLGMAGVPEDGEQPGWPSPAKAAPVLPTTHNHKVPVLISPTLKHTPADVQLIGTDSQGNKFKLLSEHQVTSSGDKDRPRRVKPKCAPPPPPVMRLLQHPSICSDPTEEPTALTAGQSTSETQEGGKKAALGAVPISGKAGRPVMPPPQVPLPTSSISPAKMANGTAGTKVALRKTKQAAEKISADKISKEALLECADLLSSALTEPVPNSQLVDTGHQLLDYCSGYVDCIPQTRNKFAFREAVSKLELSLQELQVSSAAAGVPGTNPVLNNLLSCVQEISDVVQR
Chain of Tyrosine-protein kinase receptor TYRO3 (Homo sapiens) (Q06418 whole entry): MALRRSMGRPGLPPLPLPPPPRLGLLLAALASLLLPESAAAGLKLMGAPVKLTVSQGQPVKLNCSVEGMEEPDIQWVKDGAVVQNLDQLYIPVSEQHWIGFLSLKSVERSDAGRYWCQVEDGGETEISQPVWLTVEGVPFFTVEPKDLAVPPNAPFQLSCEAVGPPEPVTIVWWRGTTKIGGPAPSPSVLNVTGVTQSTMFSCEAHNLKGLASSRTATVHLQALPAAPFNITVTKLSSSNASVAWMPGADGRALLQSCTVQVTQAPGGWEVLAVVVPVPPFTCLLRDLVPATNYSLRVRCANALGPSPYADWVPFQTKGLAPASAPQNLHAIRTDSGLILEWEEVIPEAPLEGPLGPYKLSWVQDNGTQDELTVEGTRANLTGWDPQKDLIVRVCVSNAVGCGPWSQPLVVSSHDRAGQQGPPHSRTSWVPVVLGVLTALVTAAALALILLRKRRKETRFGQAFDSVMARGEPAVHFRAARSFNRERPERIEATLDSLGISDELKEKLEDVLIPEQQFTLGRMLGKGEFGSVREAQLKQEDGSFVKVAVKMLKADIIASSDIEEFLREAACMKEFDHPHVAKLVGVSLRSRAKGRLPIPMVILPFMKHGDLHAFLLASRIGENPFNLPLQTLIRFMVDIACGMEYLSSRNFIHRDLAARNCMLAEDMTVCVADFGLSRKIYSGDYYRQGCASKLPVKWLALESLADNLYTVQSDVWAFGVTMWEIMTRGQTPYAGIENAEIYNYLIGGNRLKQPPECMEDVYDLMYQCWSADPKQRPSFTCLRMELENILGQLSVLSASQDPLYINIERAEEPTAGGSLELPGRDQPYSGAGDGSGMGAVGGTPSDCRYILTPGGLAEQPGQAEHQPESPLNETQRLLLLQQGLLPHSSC
Chain of Calcium/calmodulin-dependent protein kinase type II subunit delta (Homo sapiens) (Q13557 whole entry, canonical isoform): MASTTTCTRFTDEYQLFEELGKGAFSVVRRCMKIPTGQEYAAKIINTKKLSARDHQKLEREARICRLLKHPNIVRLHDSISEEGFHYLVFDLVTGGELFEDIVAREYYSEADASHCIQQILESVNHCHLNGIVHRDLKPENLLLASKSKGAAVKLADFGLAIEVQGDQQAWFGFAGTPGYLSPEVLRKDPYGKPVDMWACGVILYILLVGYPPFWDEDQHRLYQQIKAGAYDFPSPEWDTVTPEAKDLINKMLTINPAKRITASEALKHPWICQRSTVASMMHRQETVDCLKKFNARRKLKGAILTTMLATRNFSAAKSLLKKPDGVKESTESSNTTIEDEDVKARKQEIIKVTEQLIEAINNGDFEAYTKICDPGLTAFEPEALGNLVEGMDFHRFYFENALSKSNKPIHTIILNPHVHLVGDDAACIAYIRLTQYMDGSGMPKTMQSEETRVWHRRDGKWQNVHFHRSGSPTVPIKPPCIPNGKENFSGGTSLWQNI
Chain of Calcium/calmodulin-dependent protein kinase type 1B (Homo sapiens) (Q6P2M8 whole entry): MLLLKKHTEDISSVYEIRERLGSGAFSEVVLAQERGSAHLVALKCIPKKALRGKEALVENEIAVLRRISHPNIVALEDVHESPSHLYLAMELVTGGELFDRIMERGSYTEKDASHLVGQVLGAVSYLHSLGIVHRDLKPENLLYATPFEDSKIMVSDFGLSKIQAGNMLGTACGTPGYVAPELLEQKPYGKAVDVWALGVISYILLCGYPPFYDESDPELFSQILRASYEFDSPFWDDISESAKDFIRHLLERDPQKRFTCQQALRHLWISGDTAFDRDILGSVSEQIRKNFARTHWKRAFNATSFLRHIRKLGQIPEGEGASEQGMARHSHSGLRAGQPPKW
Chain of Serine/threonine-protein kinase B-raf (Homo sapiens) (P15056 whole entry): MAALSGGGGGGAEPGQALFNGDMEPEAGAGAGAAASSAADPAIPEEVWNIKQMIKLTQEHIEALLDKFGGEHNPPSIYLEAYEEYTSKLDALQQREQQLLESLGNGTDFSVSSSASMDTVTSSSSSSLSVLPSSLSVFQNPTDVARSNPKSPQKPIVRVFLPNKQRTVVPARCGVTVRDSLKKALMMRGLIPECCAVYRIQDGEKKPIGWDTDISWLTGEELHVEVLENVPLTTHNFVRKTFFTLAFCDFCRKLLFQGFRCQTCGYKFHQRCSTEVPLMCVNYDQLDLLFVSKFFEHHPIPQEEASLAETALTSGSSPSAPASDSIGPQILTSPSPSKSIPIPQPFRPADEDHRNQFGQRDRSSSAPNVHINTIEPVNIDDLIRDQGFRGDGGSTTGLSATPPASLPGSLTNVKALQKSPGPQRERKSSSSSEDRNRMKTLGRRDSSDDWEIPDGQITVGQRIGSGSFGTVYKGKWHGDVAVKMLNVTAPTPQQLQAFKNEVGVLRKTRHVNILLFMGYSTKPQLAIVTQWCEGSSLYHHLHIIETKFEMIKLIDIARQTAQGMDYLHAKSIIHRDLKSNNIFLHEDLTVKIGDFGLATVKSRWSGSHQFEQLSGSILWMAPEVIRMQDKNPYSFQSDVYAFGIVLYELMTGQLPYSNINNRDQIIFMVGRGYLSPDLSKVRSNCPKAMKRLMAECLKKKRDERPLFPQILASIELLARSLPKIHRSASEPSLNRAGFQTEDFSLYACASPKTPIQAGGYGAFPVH
Chain of Phosphatidylinositol 4-phosphate 5-kinase type-1 alpha (Homo sapiens) (Q99755 whole entry): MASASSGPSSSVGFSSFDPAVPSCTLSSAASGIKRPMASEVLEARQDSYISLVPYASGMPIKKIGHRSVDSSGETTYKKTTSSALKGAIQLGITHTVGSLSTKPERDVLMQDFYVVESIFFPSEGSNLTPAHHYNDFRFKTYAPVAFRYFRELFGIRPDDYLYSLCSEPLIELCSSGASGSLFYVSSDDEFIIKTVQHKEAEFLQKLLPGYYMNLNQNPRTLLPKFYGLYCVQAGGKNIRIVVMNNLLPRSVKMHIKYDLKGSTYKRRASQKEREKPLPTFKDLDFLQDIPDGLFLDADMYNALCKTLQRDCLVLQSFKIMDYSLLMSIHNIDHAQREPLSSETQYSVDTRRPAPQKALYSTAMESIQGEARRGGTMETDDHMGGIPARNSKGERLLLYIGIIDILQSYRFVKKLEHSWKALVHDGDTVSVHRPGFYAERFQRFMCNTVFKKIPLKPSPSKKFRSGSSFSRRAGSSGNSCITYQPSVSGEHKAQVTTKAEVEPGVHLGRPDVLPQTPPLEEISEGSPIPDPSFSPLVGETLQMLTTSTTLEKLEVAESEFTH

| SMILES | residual activity [1] [%] | residual activity [2] [%] | residual activity [3] [%] | residual activity [4] [%] | residual activity [5] [%] | residual activity [6] [%] | residual activity [7] [%] | inhibition [8] [%] | residual activity [9] [%] | residual activity [10] [%] | residual activity [11] [%] | residual activity [12] [%] | residual activity [13] [%] | residual activity [14] [%] | residual activity [15] [%] | residual activity [16] [%] | residual activity [17] [%] | residual activity [18] [%] | residual activity [19] [%] | residual activity [20] [%] | further results |
| --- | --- | --- | --- | --- | --- | --- | --- | --- | --- | --- | --- | --- | --- | --- | --- | --- | --- | --- | --- | --- | --- |
| Cn1nc(C(=O)NCc2ccc(C(=O)O)cc2)cc1-c1ccc2[nH]ccc2c1 [BI 4395] | 77 | 93 | 84 | 76 | 100 | 100 | 88 | 0.05 | 63 | 90 | 100 | 71 | 100 | 92 | 81 | 87 | 83 | 100 | 100 | 78 | residual activity [21]: 81%; residual activity [22]: 100%; residual activity [23]: 99%; residual activity [24]: 90%; residual activity [25]: 70%; residual activity [26]: 71%; residual activity [27]: 90%; residual activity [28]: 100%; residual activity [29]: 100%; residual activity [30]: 94%; residual activity [31]: 89%; residual activity [32]: 100%; residual activity [33]: 79%; residual activity [34]: 90%; residual activity [35]: 74%; residual activity [36]: 23% |
| CCOC(=O)c1cc2cc(-c3cc(C(=O)NCc4ccc(C(=O)O)cc4)nn3C)ccc2[nH]1 [BI 4394] | 90 | 100 | 100 | 100 | 100 | 81 | 43 | -6.49 | 100 | 95 | 93 | 92 | 86 | 80 | 92 | 89 | 91 | 93 | 97 | 74 | residual activity [21]: 93%; residual activity [22]: 97%; residual activity [23]: 72%; residual activity [24]: 79%; residual activity [25]: 79%; residual activity [26]: 88%; residual activity [27]: 77%; residual activity [28]: 88%; residual activity [29]: 97%; residual activity [30]: 100%; residual activity [31]: 100%; residual activity [32]: 100%; residual activity [33]: 93%; residual activity [34]: 83%; residual activity [35]: 91%; residual activity [36]: 100% |
